Reference: patent publication EP1976513B1 (priority 2006, dated 2007)
Values joined by “and” are separate entries in the source; they are usually repeats but may differ in a detail not shown here. Equal values may be shown once. Read-outs that look alike come from different tables or passages of the source.

Assays:
Rats [1] = experiment: Rat forced swim test; format: in vivo; details: PO, 24 hours and 30-60 minutes before the 5 minute test
mice [2] = experiment: Mouse locomotor activity; format: in vivo; details: PO; also: unit not given here
Protocol: (§1) In order to ensure effects of the compounds on immobility time were not related to a general stimulant effect on baseline motor activity, locomotor activity was assessed using photocell monitored cages (Med-Associates Inc.). Each test chamber was equipped with infrared photocell beams to measure movement of the animals. Horizontal and vertical activity were measured
(§2) Rats or mice were pretreated with vehicle or test compounds and placed back in home cage, following which they will be individually placed in locomotor cages and activity was monitored in 5 minute intervals for up to 60 min.
(§3) Data were analyzed by one way analysis of variance (ANOVA) followed by post-hoc comparisons where appropriate. An effect was considered significant if p < 0.05. Data are represented as the mean and standard error to the mean (s.e.m).

Rats [3] = experiment: Rat locomotor activity; format: in vivo; details: PO
Protocol: as §1, §2, §3

[4] = target: human serotonin reuptake transporter (Homo sapiens, UniProt P31645); experiment: cell-based; details: recombinant human serotonin transporter (SERT); read-out: Human IC50 (nM) hSERT
[5] = target: T1, 5-HT Transporter (SERT) Sites in Mouse Brain (Mus musculus, UniProt Q60857); experiment: Ex vivo [3H] citalopram binding after oral dosing; design: species or system C57BL/6 mice; details: for % Transporter Occupancy, SERT: 60 minutes after treatment, vs vehicle; for Mean Specific Binding (dpm) ± S.E.M., SERT: mice sacrificed 60 minutes after treatment, cortex
T1 construct: Whole brains were removed and cortex and striata dissected out; from tissue; host or cells: C57BL/6 mouse frontal cortex homogenate

[6] = target: T2, DA Transporter (DAT) Sites in Mouse Brain (Mus musculus, UniProt Q61327); experiment: Ex vivo [3H] WIN 35428 binding after oral dosing; design: species or system C57BL/6 mice; details: for % Transporter Occupancy, DAT: 60 minutes after treatment, vs vehicle; for Mean Specific Binding (dpm) ± S.E.M., DAT: mice sacrificed 60 minutes after treatment, striatum
T2 construct: Striatum was used to determine occupancy of DA transporter sites; from tissue; host or cells: C57BL/6 mouse striatum homogenate

mice [7] = experiment: Mouse tail suspension test; format: in vivo; details: PO, 30-60 minutes before the test, 5 minutes recording
[8] = target: Norepinephrine Transporter (NET) Sites in Mouse Brain (Mus musculus, UniProt O55192); details: PO; for % Transporter Occupancy, NET: 60 minutes after treatment, vs vehicle; for Mean Specific Binding (dpm) ± S.E.M., NET: mice sacrificed 60 minutes after treatment, cortex
Sequence of Norepinephrine Transporter (NET) Sites in Mouse Brain (O55192 whole entry): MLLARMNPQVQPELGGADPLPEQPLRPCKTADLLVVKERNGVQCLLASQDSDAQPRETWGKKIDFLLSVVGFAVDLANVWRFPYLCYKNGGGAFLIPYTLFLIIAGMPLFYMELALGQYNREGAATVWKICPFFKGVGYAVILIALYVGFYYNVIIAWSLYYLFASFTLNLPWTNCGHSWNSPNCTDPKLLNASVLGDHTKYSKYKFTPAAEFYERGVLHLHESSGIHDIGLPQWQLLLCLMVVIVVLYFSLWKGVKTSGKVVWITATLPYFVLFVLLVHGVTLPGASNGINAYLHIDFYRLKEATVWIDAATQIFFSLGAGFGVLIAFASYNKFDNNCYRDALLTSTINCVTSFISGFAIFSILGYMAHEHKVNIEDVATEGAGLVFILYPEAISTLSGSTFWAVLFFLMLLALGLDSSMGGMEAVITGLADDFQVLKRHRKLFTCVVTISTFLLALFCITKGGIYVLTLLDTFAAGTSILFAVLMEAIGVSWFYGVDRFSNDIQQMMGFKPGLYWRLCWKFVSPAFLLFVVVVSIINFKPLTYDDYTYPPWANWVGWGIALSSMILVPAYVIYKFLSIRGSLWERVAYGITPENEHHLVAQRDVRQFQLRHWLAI

T2 sequence (Q61327 whole entry): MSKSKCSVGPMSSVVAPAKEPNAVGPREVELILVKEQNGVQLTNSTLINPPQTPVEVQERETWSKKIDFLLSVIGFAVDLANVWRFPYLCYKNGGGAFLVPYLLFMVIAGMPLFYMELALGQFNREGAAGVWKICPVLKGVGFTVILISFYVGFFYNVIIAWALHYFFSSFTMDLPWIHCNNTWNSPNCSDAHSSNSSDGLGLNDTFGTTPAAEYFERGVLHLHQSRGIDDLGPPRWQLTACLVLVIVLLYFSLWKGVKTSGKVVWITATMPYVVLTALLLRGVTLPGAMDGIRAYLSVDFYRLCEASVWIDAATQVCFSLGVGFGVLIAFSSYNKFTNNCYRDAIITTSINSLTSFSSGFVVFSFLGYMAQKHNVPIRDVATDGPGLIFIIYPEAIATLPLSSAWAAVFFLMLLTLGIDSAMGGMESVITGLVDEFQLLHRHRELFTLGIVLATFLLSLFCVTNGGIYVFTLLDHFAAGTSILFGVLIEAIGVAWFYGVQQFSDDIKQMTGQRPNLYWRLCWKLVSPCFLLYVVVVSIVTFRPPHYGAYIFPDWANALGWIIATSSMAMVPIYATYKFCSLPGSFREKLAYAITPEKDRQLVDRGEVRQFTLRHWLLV
T1 sequence (Q60857 whole entry): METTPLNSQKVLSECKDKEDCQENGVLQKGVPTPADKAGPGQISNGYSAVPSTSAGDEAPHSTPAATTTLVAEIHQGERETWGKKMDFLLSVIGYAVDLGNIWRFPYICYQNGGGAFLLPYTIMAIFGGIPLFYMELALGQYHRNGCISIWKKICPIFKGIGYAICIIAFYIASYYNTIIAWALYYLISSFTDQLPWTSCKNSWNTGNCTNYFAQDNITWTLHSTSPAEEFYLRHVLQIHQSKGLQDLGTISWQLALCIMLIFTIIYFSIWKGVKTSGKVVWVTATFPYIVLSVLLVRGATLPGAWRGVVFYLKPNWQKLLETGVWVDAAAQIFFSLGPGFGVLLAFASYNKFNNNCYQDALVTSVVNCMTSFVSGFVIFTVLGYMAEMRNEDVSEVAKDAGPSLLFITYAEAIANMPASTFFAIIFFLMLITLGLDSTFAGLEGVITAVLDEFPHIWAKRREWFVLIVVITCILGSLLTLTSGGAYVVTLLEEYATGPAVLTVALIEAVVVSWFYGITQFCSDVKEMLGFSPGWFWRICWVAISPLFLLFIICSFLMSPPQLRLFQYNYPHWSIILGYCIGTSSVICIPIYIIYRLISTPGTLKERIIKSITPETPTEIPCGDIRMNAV
Sequence of human serotonin reuptake transporter (P31645 whole entry): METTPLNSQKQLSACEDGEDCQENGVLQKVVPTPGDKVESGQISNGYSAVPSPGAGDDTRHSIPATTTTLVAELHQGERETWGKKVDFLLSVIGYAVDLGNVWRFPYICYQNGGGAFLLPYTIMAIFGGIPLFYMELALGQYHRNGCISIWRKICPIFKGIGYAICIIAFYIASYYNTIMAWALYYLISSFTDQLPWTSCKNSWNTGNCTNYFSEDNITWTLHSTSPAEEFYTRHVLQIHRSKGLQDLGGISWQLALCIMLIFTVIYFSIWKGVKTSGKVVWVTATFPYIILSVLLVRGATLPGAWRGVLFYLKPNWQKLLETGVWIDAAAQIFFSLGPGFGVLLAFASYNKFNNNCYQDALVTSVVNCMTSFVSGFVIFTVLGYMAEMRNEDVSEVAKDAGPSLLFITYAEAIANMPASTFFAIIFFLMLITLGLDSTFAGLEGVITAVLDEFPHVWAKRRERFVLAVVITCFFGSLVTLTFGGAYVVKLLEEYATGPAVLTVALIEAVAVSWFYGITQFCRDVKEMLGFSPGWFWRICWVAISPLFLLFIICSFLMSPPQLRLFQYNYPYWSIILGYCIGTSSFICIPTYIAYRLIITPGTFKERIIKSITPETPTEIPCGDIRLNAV

## CN(C)CC1(c2ccc(Cl)c(Cl)c2)CCCCC1O (single isomer, unassigned) [153 E2, trans-2-(3,4-dichlorophenyl)-2-((dimethylamino)methyl)cyclohexanol]
Rats [1]; 3 mg/kg
  Rat Forced Swim (Means ± S.E.M.) Climbing: 8.8 ± 1.5
  Rat Forced Swim (Means ± S.E.M.) Immobility: 49.9 ± 1.7
  Rat Forced Swim (Means ± S.E.M.) Swimming: 1.9 ± 0.8
Rats [1]; 10 mg/kg
  Rat Forced Swim (Means ± S.E.M.) Climbing: 11.7 ± 1.8
  Rat Forced Swim (Means ± S.E.M.) Immobility: 44.0 ± 2.1
  Rat Forced Swim (Means ± S.E.M.) Swimming: 4.3 ± 1.1
Rats [1]; 30 mg/kg
  Rat Forced Swim (Means ± S.E.M.) Climbing: 22.2 ± 5.2
  Rat Forced Swim (Means ± S.E.M.) Immobility: 31.3 ± 6.7
  Rat Forced Swim (Means ± S.E.M.) Swimming: 4.6 ± 1.3
Mice [2]; 3 mg/kg
  Mouse Locomotor Activity Total Distance Traveled ± S.E.M.: 625.5 ± 88.8
Mice [2]; 10 mg/kg
  Mouse Locomotor Activity Total Distance Traveled ± S.E.M.: 519.5 ± 88.4
Mice [2]; 30 mg/kg
  Mouse Locomotor Activity Total Distance Traveled ± S.E.M.: 573.7 ± 63.6
Rats [3]; 3 mg/kg
  Rat Locomotor Activity Total Distance Traveled ± S.E.M.: 1577.8 ± 80.1
Rats [3]; 10 mg/kg
  Rat Locomotor Activity Total Distance Traveled ± S.E.M.: 1994.2 ± 263.9
Rats [3]; 30 mg/kg
  Rat Locomotor Activity Total Distance Traveled ± S.E.M.: 2033.7 ± 215.4

## CN(C)C[C@]1(c2ccc3ccccc3c2)CC[C@](C)(O)CC1 [Compound 225, 4-((dimethylamino)methyl)-1-methyl-4-(naphthalen-2-yl)cyclohexanol]
[4]
  IC50: 7 nM
[5]; 1 mg/kg
  % Transporter Occupancy, SERT: 17%
  Mean Specific Binding (dpm) ± S.E.M., SERT: 3842 ± 152 dpm
[5]; 3 mg/kg
  % Transporter Occupancy, SERT: 54%
  Mean Specific Binding (dpm) ± S.E.M., SERT: 2118 ± 139 dpm
[5]; 10 mg/kg
  % Transporter Occupancy, SERT: 81%
  Mean Specific Binding (dpm) ± S.E.M., SERT: 904 ± 35 dpm
[5]; 30 mg/kg
  % Transporter Occupancy, SERT: 91%
  Mean Specific Binding (dpm) ± S.E.M., SERT: 414 ± 37 dpm
[6]; 1 mg/kg
  % Transporter Occupancy, DAT: 3%
  Mean Specific Binding (dpm) ± S.E.M., DAT: 19787 ± 3338 dpm
[6]; 3 mg/kg
  % Transporter Occupancy, DAT: -6%
  Mean Specific Binding (dpm) ± S.E.M., DAT: 21666 ± 3698 dpm
[6]; 10 mg/kg
  % Transporter Occupancy, DAT: 8%
  Mean Specific Binding (dpm) ± S.E.M., DAT: 18872 ± 2775 dpm
[6]; 30 mg/kg
  % Transporter Occupancy, DAT: 29%
  Mean Specific Binding (dpm) ± S.E.M., DAT: 14618 ± 1209 dpm
Rats [1]; 3 mg/kg
  Rat Forced Swim (Means ± S.E.M.) Climbing: 8.4 ± 1.7
  Rat Forced Swim (Means ± S.E.M.) Immobility: 50.8 ± 1.8
Rats [1]; 10 mg/kg
  Rat Forced Swim (Means ± S.E.M.) Climbing: 11.1 ± 2.7
  Rat Forced Swim (Means ± S.E.M.) Immobility: 47.6 ± 3.0
  Rat Forced Swim (Means ± S.E.M.) Swimming: 1.2 ± 0.6
Rats [1]; 30 mg/kg
  Rat Forced Swim (Means ± S.E.M.) Climbing: 25.0 ± 4.6
  Rat Forced Swim (Means ± S.E.M.) Immobility: 33.4 ± 4.8
  Rat Forced Swim (Means ± S.E.M.) Swimming: 1.1 ± 0.5
Mice [7]; 0.3 mg/kg
  Mouse Tail Suspension Mean Immobility Time ± S.E.M.: 188.1 ± 8.0
Mice [7]; 1 mg/kg
  Mouse Tail Suspension Mean Immobility Time ± S.E.M.: 186.5 ± 5.2
Mice [7]; 3 mg/kg
  Mouse Tail Suspension Mean Immobility Time ± S.E.M.: 158.5 ± 4.9 and 155.2 ± 6.0
Mice [7]; 10 mg/kg
  Mouse Tail Suspension Mean Immobility Time ± S.E.M.: 137.8 ± 5.2
Mice [7]; 30 mg/kg
  Mouse Tail Suspension Mean Immobility Time ± S.E.M.: 136.3 ± 2.5
Mice [2]; 0.3 mg/kg
  Mouse Locomotor Activity Total Distance Traveled ± S.E.M.: 519.5 ± 56.4
Mice [2]; 1 mg/kg
  Mouse Locomotor Activity Total Distance Traveled ± S.E.M.: 423.4 ± 62.3
Mice [2]; 10 mg/kg
  Mouse Locomotor Activity Total Distance Traveled ± S.E.M.: 234.2 ± 49.4
Mice [2]; 30 mg/kg
  Mouse Locomotor Activity Total Distance Traveled ± S.E.M.: 177.4 ± 47.8
Rats [3]; 3 mg/kg
  Rat Locomotor Activity Total Distance Traveled ± S.E.M.: 1783.4 ± 182.7
Rats [3]; 10 mg/kg
  Rat Locomotor Activity Total Distance Traveled ± S.E.M.: 1628.5 ± 159.2
Rats [3]; 30 mg/kg
  Rat Locomotor Activity Total Distance Traveled ± S.E.M.: 2182.8 ± 151.2
[8]; 1 mg/kg
  % Transporter Occupancy, NET: 25%
  Mean Specific Binding (dpm) ± S.E.M., NET: 1170 ± 68 dpm
[8]; 3 mg/kg
  % Transporter Occupancy, NET: 48%
  Mean Specific Binding (dpm) ± S.E.M., NET: 813 ± 64 dpm
[8]; 10 mg/kg
  % Transporter Occupancy, NET: 75%
  Mean Specific Binding (dpm) ± S.E.M., NET: 393 ± 21 dpm
[8]; 30 mg/kg
  % Transporter Occupancy, NET: 85%
  Mean Specific Binding (dpm) ± S.E.M., NET: 230 ± 33 dpm

## CNCC1(c2ccc3ccccc3c2)CCCCC1 [Compound 93, N-methyl-1-(1-(naphthalen-2-yl)cyclohexyl)methanamine]
Rats [1]; 3 mg/kg
  Rat Forced Swim (Means ± S.E.M.) Climbing: 9.0 ± 1.3
  Rat Forced Swim (Means ± S.E.M.) Immobility: 44.5 ± 2.5
  Rat Forced Swim (Means ± S.E.M.) Swimming: 6.5 ± 1.6
Rats [1]; 10 mg/kg
  Rat Forced Swim (Means ± S.E.M.) Climbing: 12.8 ± 2.2
  Rat Forced Swim (Means ± S.E.M.) Immobility: 41.4 ± 2.8
  Rat Forced Swim (Means ± S.E.M.) Swimming: 6.9 ± 1.3
Rats [1]; 30 mg/kg
  Rat Forced Swim (Means ± S.E.M.) Climbing: 22.2 ± 3.5
  Rat Forced Swim (Means ± S.E.M.) Immobility: 25.8 ± 5.4
  Rat Forced Swim (Means ± S.E.M.) Swimming: 12.0 ± 2.1
Mice [7]; 3 mg/kg
  Mouse Tail Suspension Mean Immobility Time ± S.E.M.: 203.5 ± 8.0
Mice [7]; 10 mg/kg
  Mouse Tail Suspension Mean Immobility Time ± S.E.M.: 185.4 ± 7.9
Mice [7]; 30 mg/kg
  Mouse Tail Suspension Mean Immobility Time ± S.E.M.: 162.0 ± 8.1
Mice [2]; 3 mg/kg
  Mouse Locomotor Activity Total Distance Traveled ± S.E.M.: 644.0 ± 55.7
Mice [2]; 10 mg/kg
  Mouse Locomotor Activity Total Distance Traveled ± S.E.M.: 606.9 ± 72.4
Mice [2]; 30 mg/kg
  Mouse Locomotor Activity Total Distance Traveled ± S.E.M.: 737.6 ± 89.5
Rats [3]; 3 mg/kg
  Rat Locomotor Activity Total Distance Traveled ± S.E.M.: 1802.6 ± 150.6
Rats [3]; 10 mg/kg
  Rat Locomotor Activity Total Distance Traveled ± S.E.M.: 1641.0 ± 144.5
Rats [3]; 30 mg/kg
  Rat Locomotor Activity Total Distance Traveled ± S.E.M.: 2095.6 ± 147.2

## CNC(C)C1(c2ccc(Cl)c(Cl)c2)CCCCC1.Cl (single isomer, unassigned) [48 E1, 1-(1-(3,4-dichlorophenyl)cyclohexyl)-N-methylethanamine hydrochloride]
[6]; 1 mg/kg
  Mean Specific Binding (dpm) ± S.E.M., DAT: 20656 ± 1531 dpm
[6]; 3 mg/kg
  Mean Specific Binding (dpm) ± S.E.M., DAT: 18039 ± 1265 dpm
[6]; 10 mg/kg
  Mean Specific Binding (dpm) ± S.E.M., DAT: 9792 ± 977 dpm
[6]; 30 mg/kg
  Mean Specific Binding (dpm) ± S.E.M., DAT: 3173 ± 541 dpm
Rats [1]; 3 mg/kg
  Rat Forced Swim (Means ± S.E.M.) Climbing: 7.1 ± 0.6
  Rat Forced Swim (Means ± S.E.M.) Immobility: 49.6 ± 1.5
  Rat Forced Swim (Means ± S.E.M.) Swimming: 3.7 ± 1.0
Rats [1]; 10 mg/kg
  Rat Forced Swim (Means ± S.E.M.) Climbing: 17.9 ± 2.5
  Rat Forced Swim (Means ± S.E.M.) Immobility: 35.6 ± 3.5
  Rat Forced Swim (Means ± S.E.M.) Swimming: 6.5 ± 1.6
Rats [1]; 30 mg/kg
  Rat Forced Swim (Means ± S.E.M.) Climbing: 20.6 ± 2.9
  Rat Forced Swim (Means ± S.E.M.) Immobility: 26.9 ± 4.4
  Rat Forced Swim (Means ± S.E.M.) Swimming: 9.7 ± 1.7
Mice [7]; 3 mg/kg
  Mouse Tail Suspension Mean Immobility Time ± S.E.M.: 189.8 ± 7.2
Mice [7]; 10 mg/kg
  Mouse Tail Suspension Mean Immobility Time ± S.E.M.: 174.1 ± 5.8
Mice [7]; 30 mg/kg
  Mouse Tail Suspension Mean Immobility Time ± S.E.M.: 134.5 ± 9.6
Mice [2]; 3 mg/kg
  Mouse Locomotor Activity Total Distance Traveled ± S.E.M.: 622.5 ± 101.6
Mice [2]; 10 mg/kg
  Mouse Locomotor Activity Total Distance Traveled ± S.E.M.: 620.0 ± 79.4
Mice [2]; 30 mg/kg
  Mouse Locomotor Activity Total Distance Traveled ± S.E.M.: 468.6 ± 114.2
Rats [3]; 3 mg/kg
  Rat Locomotor Activity Total Distance Traveled ± S.E.M.: 1869.9 ± 188.4
Rats [3]; 10 mg/kg
  Rat Locomotor Activity Total Distance Traveled ± S.E.M.: 1825.3 ± 109.3
Rats [3]; 30 mg/kg
  Rat Locomotor Activity Total Distance Traveled ± S.E.M.: 1840.6 ± 56.6
[8]; 1 mg/kg
  Mean Specific Binding (dpm) ± S.E.M., NET: 2111 ± 119 dpm
[8]; 3 mg/kg
  Mean Specific Binding (dpm) ± S.E.M., NET: 1911 ± 144 dpm
[8]; 10 mg/kg
  Mean Specific Binding (dpm) ± S.E.M., NET: 954 ± 115 dpm
[8]; 30 mg/kg
  Mean Specific Binding (dpm) ± S.E.M., NET: 346 ± 55 dpm
